Results: ChEMBL document CHEMBL5726007, “Therapeutic compounds and uses thereof” (2018)

Target: T1, Bromodomain-containing protein 9 (Homo sapiens, UniProt Q9H8M2)
T1 sequence (Q9H8M2 whole entry): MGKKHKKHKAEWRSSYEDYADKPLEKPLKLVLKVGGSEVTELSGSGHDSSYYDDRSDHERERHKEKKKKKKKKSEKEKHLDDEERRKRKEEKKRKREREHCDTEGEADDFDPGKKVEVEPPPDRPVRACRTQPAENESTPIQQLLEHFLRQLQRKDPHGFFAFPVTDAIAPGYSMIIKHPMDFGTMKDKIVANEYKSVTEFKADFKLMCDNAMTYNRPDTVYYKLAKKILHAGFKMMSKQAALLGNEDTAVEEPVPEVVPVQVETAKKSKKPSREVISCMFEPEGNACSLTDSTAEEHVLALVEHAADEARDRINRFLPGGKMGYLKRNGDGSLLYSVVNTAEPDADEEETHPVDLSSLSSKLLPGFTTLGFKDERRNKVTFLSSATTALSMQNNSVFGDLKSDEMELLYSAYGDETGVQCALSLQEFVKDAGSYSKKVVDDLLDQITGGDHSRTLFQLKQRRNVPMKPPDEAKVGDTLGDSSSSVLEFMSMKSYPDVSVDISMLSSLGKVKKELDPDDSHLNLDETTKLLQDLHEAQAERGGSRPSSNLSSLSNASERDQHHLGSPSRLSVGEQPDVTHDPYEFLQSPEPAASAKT
Assay: After 20 minutes incubation at room temperature AlphaLisa Streptavidin Acceptor Beads (Perkin-AL125C) and AlphaLisa Nickel donor beads (Perkin AS 10 ID) were added to a final concentration of 15 ug/mL each.

Question: With `CC(C)n1cc(-c2ccc(C(C)(C)O)cc2)c2cc[nH]c2c1=O` as the molecule, how does the IC50 read?
Answer: 4.1 µM
